In patent publication US10138240B2, “Crystal of 5-hydroxy-4-(trifluoromethyl)pyrazolopyridine derivative” (Daiichi Sankyo Company, Limited, priority 2015, dated 2018):

What was measured:
LCAT = LCAT (Homo sapiens (Human), UniProt P04180); test: LCAT activity measurement (in vitro), HDL3 fraction from human plasma as enzyme source and acceptor; type: biochemical; conditions: HDL3 1 mg/mL from plasma of a healthy person, [14C]cholesterol, 37° C., approximately 16 hours; read-out: EC50 of LCAT activation
Procedure: A fraction composed of HDL3 (1.125<specific gravity <1.210 g/mL) was obtained from the plasma of a healthy person by density gradient centrifugation. The obtained fraction was dialyzed against phosphate-buffered saline (pH 7.4) and used as an enzyme source and an acceptor for LCAT. Each test drug was prepared by dissolution in dimethyl sulfoxide. [^14C]Cholesterol containing DTNB (Ellman's reagent, final concentration: 0.5 mM), mercaptoethanol (final concentration: 12.5 mM), and 0.6% bovine serum albumin was added to phosphate-buffered saline (pH 7.4) containing 1 mg/mL HDL3, and the test drug was further added thereto at varying concentrations to adjust the whole amount to 80 μL. This mixture was incubated at 37° C. for approximately 16 hours. Then, a mixed solution of hexane and isopropanol (mixing ratio=3:2) was added thereto to stop the reaction. After stirring, the hexane layer was collected, and this layer was evaporated to dryness. […] The radioactivity of a portion corresponding to cholesterol oleate was measured using an imaging analyzer BAS-2500 (manufactured by Fujifilm Corp.). […] The EC50 value of LCAT activation was calculated according to the expression given below relative to the LCAT activity in the sample non-supplemented with the test drug. […]

cynomolgus monkey = test: Drug efficacy test in cynomolgus monkeys (plasma HDL cholesterol); type: in vivo; conditions: oral, single dose of 10 mg/kg, from AUC before administration and 24 hours after administration
Procedure: Each test drug was dissolved in a propylene glycol (Sigma-Aldrich Corp.)-Tween 80 (Sigma-Aldrich Corp.) mixed solution [4/1 (v/v)] or a 0.5% (w/v) methylcellulose aqueous solution, and the solution was orally administered to a cynomolgus monkey for 1 or 7 days. At 1 or 7 day of administration period, blood was collected before administration and after administration, and plasma was obtained. The content of cholesterol in the plasma was measured using a commercially available assay kit (Cholesterol-E Wako, Wako Pure Chemical Industries, Ltd.). The lipoprotein profile was analyzed by HPLC (column: LipopropakXL, manufactured by Tosoh Corp.). The contents of HDL cholesterol and non-HDL cholesterol were calculated according to the following calculation expression: Content of HDL cholesterol=Content of cholesterol in the plasma×(Peak area of HDL cholesterol/Total sum of peaks) Content of non-HDL cholesterol=Content of cholesterol in the plasma×(Peak area of non-HDL cholesterol/Total sum of peaks)
The rate (%) of increase in HDL level after the administration of a single dose of 10 mg/kg compared with before administration was determined from the AUC before administration and 24 hours after administration.

Chain of LCAT (P04180 25-440): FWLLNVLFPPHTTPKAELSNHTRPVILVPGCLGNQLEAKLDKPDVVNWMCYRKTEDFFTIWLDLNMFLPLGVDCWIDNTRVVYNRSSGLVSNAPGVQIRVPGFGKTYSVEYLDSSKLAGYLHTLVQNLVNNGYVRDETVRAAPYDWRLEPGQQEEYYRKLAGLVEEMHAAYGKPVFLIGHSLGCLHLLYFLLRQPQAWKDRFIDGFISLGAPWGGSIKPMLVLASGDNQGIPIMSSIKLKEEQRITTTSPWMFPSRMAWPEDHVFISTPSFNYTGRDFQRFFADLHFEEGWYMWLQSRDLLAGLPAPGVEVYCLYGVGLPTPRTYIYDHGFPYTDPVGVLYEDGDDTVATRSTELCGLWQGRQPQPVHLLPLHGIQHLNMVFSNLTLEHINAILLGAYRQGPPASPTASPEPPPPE

| EC50 (LCAT) [nM] | Structure (SMILES) | Rate of increase in HDL level after administration of single dose (cynomolgus monkey) [%] |
| --- | --- | --- |
| 4 | O=C1Nc2[nH]nc(C3CCN(c4cnc(C(F)(F)F)cn4)CC3)c2C(O)(C(F)(F)F)C1O (single isomer, unassigned; (+)) [Example 1(4), (+)-4,5-Dihydroxy-4-(trifluoromethyl)-3-{1-[5-(trifluoromethyl)pyrazin-2-yl]piperidin-4-yl}-1,4,5,7-tetrahydro-6H-pyrazolo[3,4-b]pyridin-6-one] | 590 |
| 18 | O=C1Nc2[nH]nc(C3CCN(c4cnc(C(F)(F)F)nc4)CC3)c2[C@@H](C(F)(F)F)[C@H]1O [Example 6(4), (+)-cis-5-Hydroxy-4-(trifluoromethyl)-3-{1-[2-(trifluoromethyl)pyrimidin-5-yl]piperidin-4-yl}-1,4,5,7-tetrahydro-6H-pyrazolo[3,4-b]pyridin-6-one] | 483 |
